Data published in the supplement of paper PMC10307832.

What was measured:
Test in all cases: relative viability (nuclei count vs DMSO), 5 days (fraction); higher = more cells survive
[1] = compound: C1=CC=C(C(=C1)C2=CC=C(C=C2)C3=CSC4=C3C(=C(C(=O)N4)C#N)O)O + O=C(c1cc(Cc2n[nH]c(=O)c3ccccc23)ccc1F)N1CCN(C(=O)C2CC2)CC1 [Olaparib] (partner 8 µM)
Method in brief: (§1)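 Dosing by pin tool came one day after lung cancer cell lines were seeded in 1536-well plates, using either one drug or a fixed anchor-drug dose plus five library-drug doses (not always all listed) in √10 steps. After 5 days, nuclei were counted on 4× images. Relative viability is treated-well nuclei count divided by vehicle-well nuclei count, and values are medians of duplicate plates.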

[2] = compound: O=C(CCCCCCNC(=O)c1cnc(N(c2ccccc2)c2ccccc2)nc1)NO [Ricolinostat] + NC(=O)Nc1cc(-c2cccc(F)c2)sc1C(=O)N[C@H]1CCCNC1 [AZD7762] (partner 0.2 µM)
Method in brief: as §1

[3] = compound: C1=CC=C(C(=C1)C2=CC=C(C=C2)C3=CSC4=C3C(=C(C(=O)N4)C#N)O)O + CC(=O)c1c(C)c2cnc(Nc3ccc(N4CCNCC4)cn3)nc2n(C2CCCC2)c1=O [Palbociclib] (partner 0.5 µM)
Method in brief: as §1

[4] = compound: O=C(CCCCCCNC(=O)c1cnc(N(c2ccccc2)c2ccccc2)nc1)NO [Ricolinostat] + CC1(C)CCC(c2ccc(Cl)cc2)=C(CN2CCN(c3ccc(C(=O)NS(=O)(=O)c4ccc(N[C@H](CCN5CCOCC5)CSc5ccccc5)c(S(=O)(=O)C(F)(F)F)c4)cc3)CC2)C1 [Navitoclax] (partner 0.5 µM)
Method in brief: as §1

Row | Cell Line | relative viability ([1]; first compound 0.08 µM) | relative viability ([1]; first compound 0.253 µM) | relative viability ([1]; first compound 0.8 µM) | relative viability ([1]; first compound 2.53 µM) | relative viability ([1]; first compound 8 µM) | relative viability ([2]; first compound 0.08 µM) | relative viability ([2]; first compound 0.253 µM) | relative viability ([2]; first compound 0.8 µM) | relative viability ([2]; first compound 2.53 µM) | relative viability ([3]; first compound 0.08 µM) | relative viability ([3]; first compound 0.253 µM) | relative viability ([3]; first compound 0.8 µM) | relative viability ([3]; first compound 2.53 µM) | relative viability ([3]; first compound 8 µM) | relative viability ([4]; first compound 0.08 µM) | relative viability ([4]; first compound 0.253 µM) | relative viability ([4]; first compound 0.8 µM) | relative viability ([4]; first compound 2.53 µM)
1 | NCI-H3122 | 0.715 | 0.675 | 0.573 | 0.645 | 0.45 | 0.838 | 1.03 | 1.01 | 1.12 | 0.203 | 0.214 | 0.186 | 0.21 | 0.231 | 0.918 | 0.984 | 1.07 | 1.14
2 | HCC-15 | 0.797 | 0.789 | 0.705 | 0.728 | 0.802 | 1.09 | 1.11 | 1.37 | 1.29 | 0.786 | 0.867 | 0.766 | 0.897 | 0.617 | 0.649 | 0.75 | 0.767 | 0.616
3 | NCI-H23 | 0.282 | 0.298 | 0.37 | 0.336 | 0.273 | 0.332 | 0.281 | 0.223 | 0.154 | 0.445 | 0.512 | 0.593 | 0.51 | 0.467 | 0.82 | 0.791 | 0.924 | 0.932
4 | NCI-H1734 | 0.601 | 0.687 | 0.678 | 0.601 | 0.529 | 0.45 | 0.68 | 0.372 | 0.235 | 0.324 | 0.295 | 0.261 | 0.33 | 0.377 | 0.645 | 0.826 | 0.924 | 0.78
5 | NCI-H2170 | 0.624 | 0.617 | 0.571 | 0.687 | 0.528 | 0.815 | 0.858 | 1.01 | 0.928 | 0.349 | 0.407 | 0.404 | 0.434 | 0.329 | 0.607 | 0.495 | 0.633 | 0.662
6 | HCC-366 | – | 0.384 | 0.369 | 0.41 | 0.302 | 0.266 | 0.27 | 0.264 | 0.172 | – | 0.371 | 0.357 | 0.509 | 0.395 | 0.831 | 0.957 | 1.06 | 0.978
7 | HARA | 0.687 | 1.55 | 0.727 | 1.1 | 0.762 | 0.35 | 0.256 | 0.184 | 0.236 | 0.228 | 0.211 | 0.218 | 0.234 | 0.279 | 1.1 | 1.1 | 1.09 | 1.11
8 | NCI-H2087 | 0.513 | 0.587 | 0.667 | 0.811 | 0.496 | 1.24 | 1.27 | 1.07 | 0.973 | 0.223 | 0.228 | 0.199 | 0.256 | 0.205 | 0.96 | 1.04 | 1.02 | 1.04
9 | NCI-H1666 | 0.731 | 0.715 | 0.767 | 0.737 | 0.747 | 0.705 | 0.886 | 0.714 | 0.768 | 0.63 | 0.669 | 0.637 | 0.641 | 1.02 | 0.909 | 1.12 | 0.816 | 0.471
10 | HOP-62 | 0.592 | 0.471 | 0.515 | 0.844 | 0.233 | 0.352 | 0.521 | 0.53 | 0.277 | 0.545 | 0.536 | 0.497 | 0.532 | 0.382 | 0.887 | 1.01 | 1.03 | 1.08
11 | BEN | 0.987 | 1.38 | 1.03 | 1.19 | 0.971 | 0.534 | 0.754 | 0.559 | 0.576 | 0.582 | 0.514 | 0.481 | 0.474 | 0.507 | 0.0553 | 0.084 | 0.0569 | 0.0652
12 | NCI-H1755 | 0.989 | 0.901 | 0.875 | 0.841 | 0.916 | 0.38 | 0.444 | 0.439 | 0.422 | 0.447 | 0.482 | 0.418 | 0.42 | 0.48 | 0.864 | – | 0.981 | 0.912
13 | NCI-H1793 | 0.929 | 0.937 | 0.867 | 0.882 | 0.78 | 0.387 | 0.414 | 0.314 | 0.206 | 0.255 | 0.422 | 0.316 | 0.285 | 0.261 | – | 0.547 | 0.499 | 0.853
14 | NCI-H647 | – | 0.648 | 0.677 | 0.776 | 0.421 | 0.35 | 0.359 | 0.322 | 0.241 | – | 0.387 | 0.392 | 0.346 | 0.22 | 0.806 | 1.12 | 1.09 | 1.09
15 | NCI-H1975 | 0.692 | 0.901 | 0.796 | 0.893 | 0.535 | 0.66 | 0.768 | 0.592 | 0.705 | 0.464 | 0.483 | 0.511 | 0.539 | 0.4 | 1.07 | 1.1 | – | 0.877
16 | NCI-H2126 | 0.888 | 0.976 | 0.95 | 0.955 | 0.786 | 0.865 | 1.04 | 0.971 | 0.887 | 0.377 | 0.347 | 0.337 | 0.333 | 0.394 | 0.666 | 0.807 | 0.836 | 0.679
17 | NCI-H1651 | 0.185 | 0.182 | 0.197 | 0.186 | 0.16 | 0.429 | 0.485 | 0.367 | 0.302 | 0.506 | 0.491 | 0.483 | 0.518 | 0.48 | 0.913 | 0.993 | 1.02 | 0.854
18 | HCC-827 | 0.739 | 0.65 | 0.59 | 0.662 | 0.622 | 0.171 | 0.223 | 0.167 | 0.219 | 0.492 | 0.518 | 0.479 | 0.475 | 0.524 | 0.95 | 1.02 | 1.01 | 0.909
